For assay [1], the target named is T1, CFI (Homo sapiens, UniProt P05156).
T1 construct: purified serum CFI protein which has been successfully used in cofactor assays; purchased Complement Technology Inc (Tyler, Tex.); host or cells: human serum
T1 sequence (P05156 19-335 limits assumed): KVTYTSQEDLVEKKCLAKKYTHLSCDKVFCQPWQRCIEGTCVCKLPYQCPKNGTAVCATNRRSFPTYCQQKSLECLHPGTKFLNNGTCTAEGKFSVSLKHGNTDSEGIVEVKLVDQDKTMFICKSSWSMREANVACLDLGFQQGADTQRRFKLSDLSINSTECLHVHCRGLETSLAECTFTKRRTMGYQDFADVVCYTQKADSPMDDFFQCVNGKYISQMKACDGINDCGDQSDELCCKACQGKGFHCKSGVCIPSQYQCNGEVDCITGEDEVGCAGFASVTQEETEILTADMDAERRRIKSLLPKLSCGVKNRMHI
T1 sequence (P05156 340-583 limits assumed): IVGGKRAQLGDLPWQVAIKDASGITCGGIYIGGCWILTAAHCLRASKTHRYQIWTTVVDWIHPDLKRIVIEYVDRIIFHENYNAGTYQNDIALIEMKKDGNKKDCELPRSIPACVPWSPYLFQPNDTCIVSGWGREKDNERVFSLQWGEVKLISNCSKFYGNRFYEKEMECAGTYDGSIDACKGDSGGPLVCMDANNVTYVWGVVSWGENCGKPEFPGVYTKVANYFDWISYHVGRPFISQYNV
The assay can be described thus: Effect of treating agents on CFI bioactivity in cofactor assay. The class given is biochemical. To be noted: 1 μg/mL CFI, 10 μM BAM, 37° C. 40 min with agent; then 80 μg/mL CFH and C3b. The protocol:
(§1) FIG. 11 Effect of Tween 20, Triton X-100 and Guanidine on BAM Activity. The effect of Tween 20, Triton X-100, and Guanidine on the activity of BAM was tested in the cofactor assay, where 1 μg/mL of CFI and 10 μM BAM was incubated at 37° C. for 40 min in the presence of the treating agents, then 80 μg/mL CFH and 80 μg/mL C3b was added and the reactions were lasted for 1 hr 20 min at 37° C. The iC3b concentration in the reaction was then measured using the ELISA method.
(§2) As shown in Section 3.10, mouse isotype control IgGs, especially mIgG2b, caused significant background in terms of increasing CFI bioactivity by potential interaction with BAM at the level of the hinge. To reduce such an effect, multiple agents such as Tween 20, Triton X-100, Guanidine and human serum albumin were tested in the cofactor assays to see if they will interfere with CFI bioactivity or BAM activity first. […] However, the effect didn't seem to be differential (FIG. 11). Taken together, none of the agents tested so far could resolve the IgG BAM binding issue. Lastly, another strategy was tested by reversing the order of addition of the reagents. Normally, BAM and anti-BAM antibody were incubated first, then CFI was added to the mixture, CFH and C3b was added last. […]

The target in another assay is T2, BAM (Homo sapiens, UniProt P05067).
T2 construct: Beta amyloid recombinant peptide (1-42) (Ultra Pure, TFA Form) was purchased from Covance; purchased Covance
T2 sequence (P05067 672-713 limits assumed): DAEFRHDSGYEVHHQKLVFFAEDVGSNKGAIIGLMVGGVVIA
The experiment in a line: Effect of treating agents on BAM inhibitory activity in cofactor assay. The class given is biochemical. To be noted: 1 μg/mL CFI, 10 μM BAM, 37° C. 40 min with agent; then 80 μg/mL CFH and C3b. The protocol: as §1, §2

The test system of assay [2] is CFI. The experiment in a line: CFI bioactivity in plasma samples from Alzheimer's disease patients treated with Compound A. The class given is in vivo, human. To be noted: 6 mg/kg intravenously. The protocol:
FIG. 15. CFI bioactivity in samples from Alzheimer's disease patients treated with anti-BAM (Compound A).
3.14. Providing Evidence that an Anti-BAM Antibody can Modulate CFI Bioactivity in Alzheimer's Patients. Finally, a set of human samples from Alzheimer disease patients treated with Compound A were evaluated for CFI bioactivity in a single assay. The assay conditions follow: • 80 μg/ml CFH and C3b. • 0.01-25 nL of plasma (half-log dilutions). • Incubation 2 hours. • Measurement of iC3b via ELISA. • Samples from one patient were run in a single assay. • Each assay was run in singlets. • To control inter-assay variability a common plasma sample was run in each assay.

With Triton X-100, at CFI [1], the “effect on CFI bioactivity (in words)” value is “didn't affect CFI bioactivity”. The “effect on inhibitory activity of BAM (in words)” value on BAM is “abolished the inhibitory activity of BAM completely”.

Turning to `N=C(N)N` [Guanidine], the “effect on CFI bioactivity (in words)” value on CFI [1] is “significantly reduced”. In addition, the “effect on inhibitory activity of BAM (in words)” value on BAM was “significantly reduced”.

B1: Compound A: anti-BAM antibody comprising a heavy chain of SEQ ID NO: 10 and a light chain of SEQ ID NO: 11 (antibody)
heavy: EVQLVESGGGLVQPGGSLRLSCAVSGFTFSDNGMAWVRQAPGKGLEWVSFISNLAYSIDYADTVTGRFTISRDNAKNSLYLQMNSLRAEDTAVYYCVSGTWFAYWGQGTLVTVSSASTKGPSVFPLAPSSKSTSGGTAALGCLVKDYFPEPVTVSWNSGALTSGVHTFPAVLQSSGLYSLSSVVTVPSSSLGTQTYICNVNHKPSNTKVDKKVEPKSCDKTHTCPPCPAPELAGAPSVFLFPPKPKDTLMISRTPEVTCVWDVSHEDPEVKFNWYVDGVEVHNAKTKPREEQYNSTYRWSVLTVLHQDWLNGKEYKCKVSNKALPAPIEKTISKAKGQPREPQVYTLPPSRDELTKNQVSLTCLVKGFYPSDIAVEWESNGQPENNYKTTPPVLDSDGSFFLYSKLTVDKSRWQQGNVFSCSVMHEALHNHYTQKSLSLSPGK
light: DIVMTQSPLSLPVTPGEPASISCRVSQSLLHSNGYTYLHWYLQKPGQSPQLLIYKVSNRFSGVPDRFSGSGSGTDFTLKISRVEAEDVGVYYCSQTRHVPYTFGGGTKVEIKRTVAAPSVFIFPPSDEQLKSGTASVVCLLNNFYPREAKVQWKVDNALQSGNSQESVTEQDSKDSTYSLSSTLTLSKADYEKHKVYACEVTHQGLSSPVTKSFNRGEC
modifications: Mature H2 heavy chain amino acid sequence.; Mature Light chain amino acid sequence.
Take B1: the entries for the “overall increase of CFI bioactivity” value in the assay on CFI [2] (after the second administration) and in the assay with CFI [2] (after the third administration) were 10% and 28%, respectively.

The values are drawn from patent US20160139118A1, “NOVEL ASSAY” (GLAXOSMITHKLINE INTELLECTUAL PROPERTY (NO.2) LIMITED, priority 2013, published 2016).
